Test results published in PubChem BioAssay (NCI).
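The compound was tested at five concentrations on cells cultured in 96-well plates, with a 48-hour exposure period. The concentration for full growth arrest is given as TGI.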

Experiments:
Test in all cases: growth of human tumour cells (NCI), 48 h
[1] = system: MCF7 breast
[2] = system: DU-145 prostate
[3] = system: OVCAR-8 ovarian
[4] = system: MDA-N
[5] = system: SR leukemia
[6] = system: OVCAR-4 ovarian
[7] = system: ACHN renal
[8] = system: HCT-116 colon
[9] = system: NCI-H226 lung

Structure (SMILES) | TGI [1] [µM] | TGI [2] [µM] | TGI [3] [µM] | TGI [4] [µM] | TGI [5] [µM] | TGI [6] [µM] | TGI [7] [µM] | TGI [8] [µM] | TGI [9] [µM]
CC(C)(C)CC(C)(C)c1ccc(O)c(C[N+](C)(C)[O-])c1 | > 100 | > 100 | > 100 | > 100 | > 100 | > 100 | > 100 | > 100 | > 100
O=C1CC2CCC(C1)S2=O (stereo not drawn) | > 100 | > 100 | > 100 | > 100 | > 100 | > 100 |  | > 100 | > 100
NC1CC=C(COC(=O)C(O)(c2ccccc2)C2CC2)CC1 (stereo not drawn) | > 100 | > 100 | > 100 | > 100 | > 100 |  | > 100 | > 100 | > 100
Cc1cc(S(=O)(=O)/N=C(/NN)NNc2cccc(C(F)(F)F)n2)c(S)cc1Cl |  | 34.1 | 58.3 | 29.2 | 55.1 | 36 | 50.1 | 50.6 | 46
COc1ccc(N2NC(c3ccccc3)(c3ccccc3)C(C)C2=O)cc1 (stereo not drawn) | > 100 | > 100 | > 100 | > 100 | > 100 | > 100 | > 100 | > 100 | > 100
O=c1c2ccccc2nc(N/N=C/c2ccccc2O)n1-c1ccccc1 | > 100 | > 100 | 5.43 | > 100 |  | 43.2 | > 100 | 8.8 | > 100
O=C1C(=Cc2ccc(Cl)c(Cl)c2)C([O-])=C([P+](c2ccccc2)(c2ccccc2)c2ccccc2)C([O-])=C1[P+](c1ccccc1)(c1ccccc1)c1ccccc1 | 11.2 | 28.1 | 6.7 | 3.77 | 11.6 | 10.4 | 9.26 | 3.73 | 7.14
CNc1ncnc2c1cnn2Cc1cn(COCC(O)CO)nn1 (stereo not drawn) | > 100 | > 100 | > 100 | > 100 |  | > 100 | > 100 | > 100 | > 100
Cc1ccc(N=C2C(=Nc3ccc(C)cc3)N(c3ccc(C)cc3)C(=S)N2C(=O)c2ccccc2)cc1 | > 100 | > 100 |  | > 100 | > 100 |  | > 100 |  | > 100
COc1ccc(C2=NN=C3C(c4ccccc4)=Nc4ccccc4N3C2)cc1 | 85 | 70.7 |  | > 100 | 49.5 | 45.6 | > 100 | 71.2 | > 100
N#CC(C#N)=C1C(=O)NC(N)=C1C#N | > 100 | > 100 | > 100 | > 100 |  | > 100 | > 100 | > 100 | > 100
CSc1scc2c1/C(=N/NC(N)=O)CCC2 | > 100 | > 100 | > 100 | > 100 |  | > 100 | > 100 | > 100 | > 100
Cc1c(C(=O)O)n2cnnc2c2ccccc12 | > 100 | > 100 | > 100 | > 100 | > 100 | > 100 | > 100 | > 100 | > 100
CCCCCCCCCCCCCC(=O)N(CCCCCCCCC)CC(O)C(O)C(OC1OC(CO)C(O)C(O)C1O)C(O)CO (stereo not drawn) | > 100 | 30.6 | 39.3 | 38.1 | 46.2 | 46.6 | 30.5 | 32.1 | 34.3
CCOC(=O)[C@@H]1ON2OC(OC3CCCC3(c3ccccc3)c3ccccc3)C(OC(C)=O)[C@H]3OC(=O)[C@@H]1C32 (stereo partly drawn) | 50.4 | > 100 | > 100 | > 100 | > 100 |  | 73.2 | > 100 | > 100
C=C(c1ccccc1)c1ccccc1-c1cc(-c2ccccc2)cc(-c2ccccc2)n1 | > 100 | > 100 | > 100 | > 100 | > 100 |  | > 100 | > 100 | > 100
COc1ccc(C(=O)/C=C/c2cc(O)c(O)cc2F)c(OC)c1 | 13.9 | 27.3 | > 76.6 | 53.4 | 14.1 | > 100 | > 63.3 | 20.4 | 55
CN1CCN(C2=CC(=O)c3c(O)ccc(O)c3C2=O)CC1 | 1.18 | 3.13 |  | 0.325 | 8.1 | 3.46 | 2.88 | 0.578 | 2.96
CC(=O)c1c2n(n(-c3ccccc3)c1=O)C(=O)c1nccnc1-2 | > 100 | > 100 | > 100 | > 100 | > 100 | > 100 | > 100 | > 100 | > 100
OC(CC(O)(C(F)(F)F)C(F)(F)F)c1ccc(C(O)CC(O)(C(F)(F)F)C(F)(F)F)cc1 (stereo not drawn) |  | 28.3 | 29.5 | 35.4 | 40.2 | 29.8 | 27.6 | 24 | 
[N-]=[N+]=Nc1c([N+](=O)[O-])c(=O)n2c3c(cccc13)CCC2 | 27 | 38.7 | 35.1 | 27.9 | 5.9 | 27 | 31.8 | 30.2 | 51.9
COC(=O)c1c(O)ccc2c1c1c(n2Cc2ccccc2)C(=O)c2ccccc2C1 | > 100 | > 100 | > 100 | > 100 | 37.5 | 70.4 |  | > 100 | > 100
CC(C)(C)[Si](C)(C)OCC1OC(n2cnc3c(=O)[nH]c(N)nc32)C(O[Si](C)(C)C(C)(C)C)C1O[Si](C)(C)C(C)(C)C (stereo not drawn) | 3.9 | 12.2 | 11.3 | 3.3 | 5.48 | 3.65 | 12.9 | 2.61 | 6.79
O=[N+]([O-])C(Cl)=C/C(=C(\Cl)SCc1ccccc1)[N+](=O)[O-] | > 100 | > 100 | 59.9 | 69.8 |  | 41.2 | 32.2 | 44.1 | 75.9
